Reference: PubChem BioAssay (NCI)
Where “and” joins values, the source holds several entries; their conditions need not be identical. Equal entries are not always repeated.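 Results reflect a 48-hour exposure of cells in 96-well plates to compound at five concentrations. At the GI50, growth is halved. TGI marks complete inhibition of growth.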

Experiments:
Experiment in all cases: NCI-60 cell line screen, 48 h
786-0 renal = tested on: 786-0 renal
A498 renal = tested on: A498 renal
CAKI-1 renal = tested on: CAKI-1 renal
DMS 114 small cell lung = tested on: DMS 114 small cell lung
HT29 colon = tested on: HT29 colon
OVCAR-4 ovarian = tested on: OVCAR-4 ovarian
SF-268 CNS = tested on: SF-268 CNS
U251 CNS = tested on: U251 CNS
MDA-MB-435 = tested on: MDA-MB-435
MDA-N = tested on: MDA-N

Compound	TGI (786-0 renal)	TGI (A498 renal)	TGI (CAKI-1 renal)	TGI (DMS 114 small cell lung) [µM]	TGI (HT29 colon)	TGI (OVCAR-4 ovarian)	TGI (SF-268 CNS) [µM]	TGI (U251 CNS)	GI50 (786-0 renal) [µM]	GI50 (A498 renal) [µM]	GI50 (MDA-MB-435) [µM]	GI50 (MDA-N) [µM]	TGI (MDA-N)	GI50 (SF-268 CNS) [µM]	GI50 (U251 CNS) [µM]	TGI (MDA-MB-435)	GI50 (DMS 114 small cell lung) [nM]	GI50 (OVCAR-4 ovarian) [µM]
COC(=O)C1=NC(=S)NC(c2ccccc2)C1c1nc2ccccc2o1 (stereo not given)	> 50 µM	> 50 µM	> 50 µM	> 50	> 50 µM	> 50 µM	> 50	> 50 µM	–	–	–	–	–	–	–	–	–	–
CCCCCCCCCCCC/C=C\CC[C@@H](O)[C@H](O)CC[C@H](O)[C@@H]1CC[C@@H](CCCCCCCC2=C[C@H](C)OC2=O)O1	40.3 µM	36.6 µM	35.7 µM	–	–	26.8 µM	38	> 100 µM	15.7	16.4	11.4	6.76	23.4 µM	14.2	13.7	–	–	–
CC(C)(O)C1COC2=C1C(=O)c1ccccc1C2=O (stereo not given)	> 100 µM	> 100 µM	> 100 µM	–	> 100 µM	> 100 µM	77.1	> 100 µM	–	–	–	–	33.3 µM	–	–	44.6 µM	–	–
Cc1cc(NCCCCCCCNc2cc(C)nc3cc(N)ccc23)c2ccc(N)cc2n1	> 100 µM	> 100 µM	> 100 µM	32	> 100 µM	> 100 µM	> 100	> 100 µM	–	–	–	–	–	–	–	–	–	–
CC(C)c1ccc(O)c(Cc2cc(C(C)C)cc(Cc3cc(C(C)C)ccc3O)c2O)c1	3.08 µM	2.82 µM	2.91 µM	3.03	4.28 µM	2.68 µM	4.01	3.17 µM	–	–	–	–	–	–	–	–	–	–
COC(=O)Cc1cc(=O)n2c3ccccc3n(C)c2c1C#N	> 100 µM	> 100 µM	> 100 µM	> 100	> 100 µM	> 100 µM	> 100	> 100 µM	–	–	–	–	–	–	–	–	–	–
Cc1sc(/N=C/C2=C(O)CC(C)(C)CC2=O)nc1-c1ccccc1	> 100 µM	–	> 100 µM	–	> 100 µM	> 100 µM	> 100	> 100 µM	–	–	–	–	> 100 µM	–	–	> 100 µM	–	–
CC(=O)CCC1(c2ccccc2)OC(=O)C(C#N)=C1c1ccccc1 (stereo not given)	> 100 µM	> 100 µM	–	> 100	> 100 µM	> 100 µM	> 100	> 100 µM	–	–	–	–	–	–	–	–	–	–
O=C(Nc1ccn(C2CC(O)C(COC(c3ccccc3)(c3ccccc3)c3ccccc3)O2)c(=O)n1)c1ccccc1 (stereo not given)	3.51 µM	–	18.4 µM	–	3.22 µM	7.88 µM	20	11.4 µM	–	–	–	–	3.99 µM	–	–	5.68 µM	–	–
Cc1cc(C)c2nc3c(c(C(O)C4CCCCN4)c2c1)CC/C3=C\c1ccc(Cl)cc1 (stereo not given)	> 100 µM	> 100 µM	> 100 µM	–	> 100 µM	> 100 µM	> 100	> 100 µM	–	–	–	–	> 100 µM	–	–	> 100 µM	–	–
COC(=O)[C@@]12OC[C@]34[C@H]([C@@H](O)[C@@H]1O)[C@@]1(C)CC(=O)C(O)=C(C)[C@@H]1C[C@H]3OC(=O)[C@H](OC(=O)/C=C(\C)C(C)C)[C@@H]24	0.072 µM and < 0.012 µM and 0.0429 µM	0.0109 µM and 0.022 µM	0.055 µM and 0.0295 µM and 0.159 µM	0.000286	0.0161 µM and 0.0718 µM	0.017 µM and 0.0225 µM	–	0.0206 µM and 0.0657 µM	0.0217	0.00487	–	0.02	0.0345 µM and 0.0321 µM	–	–	0.0415 µM and 0.0128 µM	0.0354	0.00334
